Laboratory results reported in the NIST ThermoML archive (doi:10.1016/j.jct.2016.09.030).

Assay: refractive index (Na D-line) (dimensionless); xn = mol fraction of the nth substance listed
Settings: 100 kPa, Liquid, Standard Abbe refractometry

CCOC(=O)CCC(=O)OCC [diethyl butanedioate] + CC(C)CCO
refractive index
Settings	x1 = 0.1	x1 = 0.2	x1 = 0.3	x1 = 0.3999	x1 = 0.5	x1 = 0.5999	x1 = 0.7	x1 = 0.7999	x1 = 0.9002	x1 = 1
288.15 K	1.41	1.4114	1.4129	1.4144	1.4158	1.4172	1.4184	1.4197	1.4208	1.4217
293.15 K	1.4079	1.4093	1.4108	1.4123	1.4136	1.415	1.4163	1.4175	1.4186	1.4195
298.15 K	1.4058	1.4072	1.4087	1.4101	1.4115	1.4128	1.414	1.4153	1.4164	1.4173
303.15 K	1.4037	1.4051	1.4065	1.4079	1.4093	1.4106	1.4119	1.4131	1.4142	1.4151
308.15 K	1.4016	1.4029	1.4043	1.4057	1.4071	1.4084	1.4096	1.4108	1.412	1.4129
313.15 K	1.3996	1.4008	1.4022	1.4036	1.4049	1.4062	1.4075	1.4087	1.4098	1.4108
318.15 K	1.3975	1.3988	1.4001	1.4014	1.4028	1.4041	1.4054	1.4066	1.4077	1.4088
323.15 K	1.3954	1.3966	1.398	1.3993	1.4006	1.4019	1.4032	1.4045	1.4056	1.4067

CCOC(=O)CCC(=O)OCC [diethyl butanedioate] + CC(C)CO
refractive index
Settings	x1 = 0.0999	x1 = 0.2	x1 = 0.3001	x1 = 0.4	x1 = 0.4999	x1 = 0.5999	x1 = 0.6999	x1 = 0.8	x1 = 0.9	x1 = 1
288.15 K	1.4016	1.4047	1.4076	1.4103	1.4127	1.4148	1.4168	1.4186	1.4203	1.4217
293.15 K	1.3995	1.4025	1.4055	1.4081	1.4105	1.4127	1.4146	1.4164	1.4181	1.4195
298.15 K	1.3974	1.4004	1.4033	1.4059	1.4083	1.4104	1.4124	1.4142	1.4159	1.4173
303.15 K	1.3952	1.3982	1.4011	1.4037	1.4061	1.4082	1.4102	1.412	1.4137	1.4151
308.15 K	1.3929	1.396	1.3989	1.4015	1.4038	1.406	1.408	1.4098	1.4115	1.4129
313.15 K	1.3908	1.3938	1.3966	1.3992	1.4016	1.4037	1.4058	1.4076	1.4093	1.4108
318.15 K	1.3886	1.3916	1.3943	1.397	1.3993	1.4015	1.4036	1.4054	1.4071	1.4088
323.15 K	1.3863	1.3894	1.3921	1.3947	1.3971	1.3993	1.4013	1.4032	1.405	1.4067

CCCCCCCC(=O)OCC [ethyl octanoate] + CC(C)CCO
refractive index
Settings	x1 = 0.1	x1 = 0.2001	x1 = 0.3	x1 = 0.4	x1 = 0.5001	x1 = 0.5999	x1 = 0.7003	x1 = 0.7998	x1 = 0.9001	x1 = 1
288.15 K	1.4104	1.412	1.4134	1.4146	1.4156	1.4166	1.4175	1.4183	1.4191	1.4199
293.15 K	1.4083	1.4099	1.4112	1.4124	1.4135	1.4144	1.4153	1.4161	1.4169	1.4177
298.15 K	1.4063	1.4078	1.4091	1.4102	1.4113	1.4122	1.4131	1.4139	1.4147	1.4155
303.15 K	1.4042	1.4056	1.4069	1.4081	1.4091	1.41	1.4109	1.4116	1.4125	1.4132
308.15 K	1.4021	1.4035	1.4047	1.4059	1.4069	1.4078	1.4087	1.4094	1.4102	1.411
313.15 K	1.3999	1.4013	1.4026	1.4037	1.4047	1.4056	1.4064	1.4072	1.408	1.4088
318.15 K	1.3978	1.3992	1.4004	1.4015	1.4024	1.4034	1.4042	1.405	1.4058	1.4066
323.15 K	1.3957	1.397	1.3982	1.3993	1.4003	1.4012	1.402	1.4027	1.4036	1.4044

CCCCCCCC(=O)OCC [ethyl octanoate] + CC(C)CO
refractive index
Settings	x1 = 0.1001	x1 = 0.1999	x1 = 0.3	x1 = 0.4	x1 = 0.5	x1 = 0.5999	x1 = 0.6999	x1 = 0.7999	x1 = 0.9	x1 = 1
288.15 K	1.4018	1.4052	1.408	1.4102	1.4123	1.4142	1.4158	1.4173	1.4186	1.4199
293.15 K	1.3997	1.403	1.4058	1.408	1.4101	1.412	1.4136	1.4151	1.4164	1.4177
298.15 K	1.3976	1.4009	1.4036	1.4058	1.4079	1.4097	1.4114	1.4128	1.4142	1.4155
303.15 K	1.3955	1.3987	1.4014	1.4036	1.4056	1.4075	1.4091	1.4106	1.4119	1.4132
308.15 K	1.3933	1.3965	1.3992	1.4014	1.4034	1.4052	1.4069	1.4084	1.4097	1.411
313.15 K	1.3911	1.3942	1.3969	1.3991	1.4012	1.403	1.4046	1.4061	1.4075	1.4088
318.15 K	1.3889	1.392	1.3947	1.3968	1.3989	1.4007	1.4024	1.4039	1.4052	1.4066
323.15 K	1.3867	1.3898	1.3925	1.3946	1.3967	1.3985	1.4001	1.4017	1.403	1.4044
